Where two headings read alike, the source gives them in different places.
Columns and labels:
[1] = SOD-like activity: inhibition of superoxide reduction of nitroblue tetrazolium (DMSO-KO2 / xanthine-xanthine oxidase); type: biochemical; details: for IC50 / Percent Reactivity (SOD-like activity): Table I; for IC50: read-out: Concentration: compound required for 50% inhibition of superoxide reduction of nitroblue tetrazolium; for Percent Reactivity (SOD-like activity): relative to Cu-Zn SOD = 100
[2] = cited from earlier work
[3] = pH 7.0; cited from earlier work
[4] = pH 12; cited from earlier work
patients = details: ongoing clinical trials; cited from earlier work
[5] = Rate of superoxide dismutation; type: biochemical; details: Table I
Source text: The enzyme superoxide dismutase (SOD) plays a significant role in the defense against oxygen toxicity in aerobic organisms. Superoxide dismutase catalyzes the dismutation of O2^-, as follows:.
2 ^- O-O^. +2H^+ →H2 O2 +^. O-O^.
**Weser, et al., In "Inflammatory Diseases and Copper", Sorenson (ed.),
Humana Press: Clifton, New Jersey (1982), p. 513

lethally irradiated mice = assay: Radioprotection: survival of lethally irradiated (60Co) mice; type: in vivo, female B6CBFl mice
Protocol: One group of 22-control and two groups of 24-treated 8 to 10 week old female B6CBFl mice (Cumberland View Farms, Clinton, Tennessee) were used. Control animals were given a subcutaneous (sc) injection of 0.3 ml of vehicle (0.25% Tween 80 in 0.9% pyrogen-free sterile saline) 24 hours before irradiation. One treatment group was given a single sc injection of 0.49 mM/kg of Cu(II)(3,5-dips)2 in 0.3 ml of vehicle 3 hours before irradiation and the other group was given the same treatment 24 hours before irradiation.
This radiation dose was measured with an electrometer connected to 0.05 ml NBS calibrated ion chambers positioned inside wax phantom mice placed in plexiglass cages. The tissue to air ratio for these phantom mice has been determined to be 97 percent. Control and treated mice were housed 5 mice per cage and fed mouse chow and water ad libitum for the 30 day observation period.

mice = assay: Acute toxicity in mice (subcutaneous); type: in vivo; details: subcutaneous injection, 10080 min
Protocol: (§1) The particular embodiment described in complete detail herein concerns the use of Cu(II)(3,5-dips)2. […] A minimum prophylatic dose would be about 0.001 mg/kg, while a therapeutic dose would range from about 1 mg to 100 mg/kg, depending upon the radiation dose. Therapeutic doses would be initiated about two weeks before radiotherapy, and would continue as necessary after the radiation treatment. For cases of accidental exposure, treatment would be initiated immediately after exposure and continued as necessary thereafter. Prophylactic doses would be taken on a continuing basis, for example a daily basis, as long as the recurrent radiation exposure continued. In any of these cases, the route of administration might be oral, topical, rectal or parenteral (e.g., intramuscular, intravenous, subcutaneous, or intraperitoneal).

rats = assay: Acute toxicity in rats (subcutaneous); type: in vivo
Protocol: as §1
Copper 3,5-diisopropylsalicylate was synthesized according to the method of Sorenson, J. Med. Chem. 19:135 (1976), which is incorporated herein by reference.

human beings = assay: Predicted toxicity in human beings by extrapolation; details: per body weight
Protocol: as §1

[6] = 0.49 mM/kg sc 3 hours before 10 Gy, 30 day observation
[7] = 0.49 mM/kg sc 24 hours before 10 Gy, 30 day observation

CC(=O)Oc1ccccc1C(=O)[O-].CC(=O)Oc1ccccc1C(=O)[O-].CC(=O)Oc1ccccc1C(=O)[O-].CC(=O)Oc1ccccc1C(=O)[O-].CS(C)=O.CS(C)=O.[Cu+2].[Cu+2] [Cu(II)2 (acetylsalicylate)4 (DMSO)2]
IC50 [1]: 2.8 µM
Percent Reactivity (SOD-like activity) [1]: 0.69%

CC(=O)Oc1ccccc1C(=O)[O-].CC(=O)Oc1ccccc1C(=O)[O-].CC(=O)Oc1ccccc1C(=O)[O-].CC(=O)Oc1ccccc1C(=O)[O-].CS(C)=O.CS(C)=O.CS(C)=O.CS(C)=O.[Cu+2].[Cu+2] [Cu(II)2 (acetylsalicylate)4 (dimethylsulfoxide)4]
superoxide scavenging (in words) [1]: superoxide scavengers

CC(=O)Oc1ccccc1C(=O)[O-].CC(=O)Oc1ccccc1C(=O)[O-].CC(=O)Oc1ccccc1C(=O)[O-].CC(=O)Oc1ccccc1C(=O)[O-].[Cu+2].[Cu+2].c1ccncc1.c1ccncc1 [Cu(II)2 (acetylsalicylate)4 (pyridine)2]
IC50 [1]: 2.7 µM
Percent Reactivity (SOD-like activity) [1]: 0.32%

CC(=O)Oc1ccccc1C(=O)[O-].CC(=O)Oc1ccccc1C(=O)[O-].CC(=O)Oc1ccccc1C(=O)[O-].CC(=O)Oc1ccccc1C(=O)[O-].[Cu+2].[Cu+2].c1ccncc1.c1ccncc1.c1ccncc1.c1ccncc1 [Cu(II)2 (acetylsalicylate)4 (pyridine)4]
superoxide scavenging (in words) [1]: superoxide scavengers

CC(C)(C)c1cc(C(=O)[O-])c(O)c(C(C)(C)C)c1.CC(C)(C)c1cc(C(=O)[O-])c(O)c(C(C)(C)C)c1.[Cu+2] [Cu(II)(3,5-ditertiarybutylsalicylate)2]
superoxide scavenging (in words) [1]: superoxide scavengers
IC50 [1]: 6.2 µM
Percent Reactivity (SOD-like activity) [1]: 0.74%

O=C(O)c1ccccc1[O-].O=C(O)c1ccccc1[O-].[Cu+2] [Cu(II)(salicylate)2]
superoxide scavenging (in words) [1]: superoxide scavengers
IC50 [1]: 4.6 µM
Percent Reactivity (SOD-like activity) [1]: 0.65%
Rate of superoxide dismutation ([2]; Table I, footnote ** (Weser et al.)): 1.6 × 10 M^-1 s^-1

O=C([O-])CN(CCN(CC(=O)[O-])CC(=O)O)CC(=O)O.[Na+].[Na+] [Na2 EDTA]
Rate, Cu(II)(L)2 + HO^. [3]: 4e+09 M⁻¹ s⁻¹
Rate, Cu(II)(L)2 + e^- aq [4]: 1e+10 M⁻¹ s⁻¹

NCCCNCCSP(=O)(O)O [WR2721, S-2-(3-aminopropylamino) ethyl-phosphorothioic acid]
undesirable side effects (patients): emesis, hypertension, hypotension, somnolence and allergy

Cu(II)2 (acetylsalicylate)4
superoxide scavenging (in words) [1]: superoxide scavengers
IC50 [1]: 3.1 µM
Percent Reactivity (SOD-like activity) [1]: 0.043%

bovine SOD: pure bovine SOD
sensitivity of the assay, ug SOD per unit of activity ([1]; pure bovine SOD, per unit of activity, pH 7.8): 0.85 µg

copper 3,5-diisopropylsalicylate [Cu(II)(3,5-dips)2]
superoxide scavenging (in words) [1]: superoxide scavengers
IC50 [1]: 2.9 µM
efficiency in disproportionating superoxide compared with Cu-Zn SOD (in words) ([1]; based on Table I): not as efficient as Cu-Zn SOD
mean SOD activity ([1]; modified assay, DMSO-KO2, pH 7.8): 17,400±1,800 units per milligram
Percent Reactivity (SOD-like activity) [1]: 0.70%
Rate of superoxide dismutation [5]: 1e+09 to 2e+09 M⁻¹ s⁻¹
day post-irradiation after which none died (lethally irradiated mice; 0.49 mM/kg sc 3 hours before 10 Gy): 18 days
number of surviving mice (lethally irradiated mice; [6]): 8 mice
survival (lethally irradiated mice; [6]): Thirty-three
day post-irradiation after which none died (lethally irradiated mice; 0.49 mM/kg sc 24 hours before 10 Gy): 19 days
number of surviving mice (lethally irradiated mice; [7]): 14 mice
survival (lethally irradiated mice; [7]): Fifty-eight
survival (lethally irradiated mice; pretreatment interval 3 h, restated in comparison with Cu-Zn SOD): 33%
survival (lethally irradiated mice; pretreatment interval 24 h, restated in comparison with Cu-Zn SOD): 58%
survivors (lethally irradiated mice; similarly treated mice, irradiated with 12 Gy): no survivors
protection compared with Cu-Zn SOD (in words) (lethally irradiated mice; vs Cu-Zn SOD data of Petkau, different conditions): much greater protection
LD50/7 (mice): at least 280 mg/kg
LD50 (rats; subcutaneous): 240 +33 mg/kg
LD50/7 (rats; subcutaneous injection, 10080 min): 240 mg/kg
predicted LD50 in human beings (human beings): approximately 250 mg/kg

superoxide dismutase: enzyme that catalyzes the dismutation of O2^-; native SOD has a molecular weight of about 32,000 daltons
rate of O2^- dismutation, k ([2]; Czapski 1971): 1.3e+09 M⁻¹ s⁻¹
